# Measured values published in publication PMC10620989, “Going beyond Binary: Rapid Identification of Protein–Protein Interaction Modulators Using a Multifragment Kinetic Target-Guided Synthesis Approach” (Journal of Medicinal Chemistry, 2023).
# Experiments:
# [1] = target: T1, Mcl-1 (Mus musculus, UniProt P97287); experiment: Binary KTGS incubation (1 TA x 1 SZ) with Mcl-1, LC-MS/MS; details: binary incubation mixtures with and without Mcl-1
# [2] = target: GST-tagged mouse Mcl-1-(152–309) (Mus musculus, UniProt P97287); experiment: Fluorescence polarization competitive binding assay, GST-Mcl-1 / FITC-Bim-BH3; details: FP; for IC50: GST-Mcl-1 and fluorescein-labeled Bim BH3 peptide, read-out: IC50 on Mcl-1; for inhibition at 50 µM: compound at 50 µM
# [3] = target: T1, Mcl-1; experiment: Multifragment KTGS screen against Mcl-1 (5 TA x 38 SZ per well), LC-MS/MS; details: multifragment KTGS, 190 combinations per well, 10 μM Mcl-1, 20 μM each fragment, pH 7.4, 37 °C, 10 h; peak area with protein / without protein
# T1 sequence (P97287 whole entry): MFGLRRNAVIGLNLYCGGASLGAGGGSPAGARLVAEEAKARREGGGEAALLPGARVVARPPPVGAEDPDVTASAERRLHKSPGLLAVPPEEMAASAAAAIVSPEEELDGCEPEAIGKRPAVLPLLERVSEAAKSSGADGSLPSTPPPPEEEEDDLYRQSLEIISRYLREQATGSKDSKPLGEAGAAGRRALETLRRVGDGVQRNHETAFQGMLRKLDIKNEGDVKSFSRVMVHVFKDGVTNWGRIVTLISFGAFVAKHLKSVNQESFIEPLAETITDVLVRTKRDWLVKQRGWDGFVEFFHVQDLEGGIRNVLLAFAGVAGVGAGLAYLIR
# Chain of GST-tagged mouse Mcl-1-(152–309) (P97287 152-309): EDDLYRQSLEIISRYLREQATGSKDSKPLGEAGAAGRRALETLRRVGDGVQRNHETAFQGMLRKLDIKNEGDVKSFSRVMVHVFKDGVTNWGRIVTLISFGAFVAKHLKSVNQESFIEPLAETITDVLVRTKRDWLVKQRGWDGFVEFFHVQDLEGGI
Amplification coefficient 1TA x 1SZ [1],IC50 [2] [µM],inhibition at 50 µM [2] [%],Amplification coefficient 5TA x 38SZ [3],SMILES
4,31.5,98.1,12,"O=C(NS(=O)(=O)c1ccc(-c2ccc(C(F)(F)F)cc2)cc1)c1cccc(NCCc2ccccc2)c1 [SZ16TA44, O=C(NS(C1=CC=C(C2=CC=C(C(F)(F)F)C=C2)C=C1)(=O)=O)C3=CC(NCCC4=CC=CC=C4)=CC=C3]"
4,–,60.6,13,"COc1cccc(CN(CCSc2ccccc2)Cc2ccc(S(=O)(=O)NC(=O)Cn3c4ccccc4c4ccccc43)cc2)c1 [SZ17TA15, O=C(NS(C1=CC=C(CN(CC2=CC(OC)=CC=C2)CCSC3=CC=CC=C3)C=C1)(=O)=O)CN4C(C=CC=C5)=C5C6=C4C=CC=C6]"
4,–,93.6,7,"COc1cccc(CN(CCSc2ccccc2)Cc2ccc(S(=O)(=O)NC(=O)c3ccc(-c4ccccn4)cc3)cc2)c1 [SZ17TA25, O=C(NS(C1=CC=C(CN(CCSC2=CC=CC=C2)CC3=CC(OC)=CC=C3)C=C1)(=O)=O)C4=CC=C(C5=NC=CC=C5)C=C4]"
9,–,42.5,21,"COc1cccc(CN(CCSc2ccccc2)Cc2ccc(S(=O)(=O)NC(=O)c3ccc(C(c4c[nH]c5ccccc45)c4c[nH]c5ccccc45)cc3)cc2)c1 [SZ17TA31, O=S(C1=CC=C(C=C1)CN(CCSC2=CC=CC=C2)CC3=CC=CC(OC)=C3)(NC(C(C=C4)=CC=C4C(C5=CNC6=C5C=CC=C6)C7=CNC8=C7C=CC=C8)=O)=O]"
20,–,34.5,16,"COc1cccc(CN(CCSc2ccccc2)Cc2ccc(S(=O)(=O)NC(=O)c3ccc4c(c3)c(C(=O)c3cccs3)cn4C)cc2)c1 [SZ17TA45, O=C(NS(C1=CC=C(CN(CCSC2=CC=CC=C2)CC3=CC(OC)=CC=C3)C=C1)(=O)=O)C4=CC(C(C(C5=CC=CS5)=O)=CN6C)=C6C=C4]"
7,9.4,> 99,15,"Cc1nc(-c2ccccc2)sc1C(=O)NS(=O)(=O)c1ccc(CN(CCSc2ccccc2)Cc2ccc3c(c2)OCO3)cc1 [SZ31TA3, O=C(NS(C1=CC=C(CN(CCSC2=CC=CC=C2)CC3=CC(OCO4)=C4C=C3)C=C1)(=O)=O)C5=C(C)N=C(C6=CC=CC=C6)S5]"
4,5.9,> 99,7,"O=C(NS(=O)(=O)c1ccc(CN(CCSc2ccccc2)Cc2ccc3c(c2)OCO3)cc1)c1ccc(OC(F)(F)F)cc1 [SZ31TA8, O=C(NS(C1=CC=C(CN(CCSC2=CC=CC=C2)CC3=CC(OCO4)=C4C=C3)C=C1)(=O)=O)C5=CC=C(OC(F)(F)F)C=C5]"
12,–,36.5,10,"O=C(NS(=O)(=O)c1ccc(CN(CCSc2ccccc2)Cc2ccc3c(c2)OCO3)cc1)c1cccc(NCCc2ccccc2)c1 [SZ31TA44, O=C(NS(C1=CC=C(CN(CC2=CC(OCO3)=C3C=C2)CCSC4=CC=CC=C4)C=C1)(=O)=O)C5=CC(NCCC6=CC=CC=C6)=CC=C5]"
9,–,89.2,9,"O=C(NS(=O)(=O)c1ccc(-c2ccc(Oc3ccccc3)cc2)cc1)c1ccc(CCc2ccccn2)cc1 [SZ35TA17, O=C(NS(C1=CC=C(C2=CC=C(OC3=CC=CC=C3)C=C2)C=C1)(=O)=O)C4=CC=C(CCC5=NC=CC=C5)C=C4]"

# The next lines start with the molecule.
SMILES,Amplification coefficient 1TA x 1SZ [1],IC50 [2] [µM],inhibition at 50 µM [2] [%],Amplification coefficient 5TA x 38SZ [3]
"COc1cccc(CN(CCSc2ccccc2)Cc2ccc(S(=O)(=O)NC(=O)c3ccc(OC(F)(F)F)cc3)cc2)c1 [SZ17TA8, O=C(NS(C1=CC=C(CN(CCSC2=CC=CC=C2)CC3=CC(OC)=CC=C3)C=C1)(=O)=O)C4=CC=C(OC(F)(F)F)C=C4]",4,8.4,> 99,8
"COc1cccc(CN(CCSc2ccccc2)Cc2ccc(S(=O)(=O)NC(=O)c3ccc(Cc4ccc(OC)c(OC)c4OC)cc3)cc2)c1 [SZ17TA24, O=C(NS(C1=CC=C(CN(CCSC2=CC=CC=C2)CC3=CC(OC)=CC=C3)C=C1)(=O)=O)C4=CC=C(CC5=CC=C(OC)C(OC)=C5OC)C=C4]",5,–,74.1,9
"CCOc1ccc(-c2ccc3c(c2)c(C(=O)NS(=O)(=O)c2cccc4c(N(C)C)cccc24)cn3C)cc1F [SZ21TA23, O=C(NS(C1=CC=CC2=C1C=CC=C2N(C)C)(=O)=O)C(C3=C4C=CC(C5=CC=C(OCC)C(F)=C5)=C3)=CN4C]",4,–,42.8,7
"Cn1cc(C(=O)c2cccs2)c2cc(C(=O)NS(=O)(=O)CCN(CCSc3ccccc3)Cc3ccc4c(c3)OCO4)ccc21 [SZ28TA45, O=C(NS(CCN(CC1=CC=C(OCO2)C2=C1)CCSC3=CC=CC=C3)(=O)=O)C4=CC(C(C(C5=CC=CS5)=O)=CN6C)=C6C=C4]",5,–,54,8
"O=C(NS(=O)(=O)c1ccc(CN(CCSc2ccccc2)Cc2ccc3c(c2)OCO3)cc1)c1ccc(-c2ccc(F)cc2)cc1 [SZ31TA14, O=C(NS(C1=CC=C(CN(CC2=CC(OCO3)=C3C=C2)CCSC4=CC=CC=C4)C=C1)(=O)=O)C5=CC=C(C6=CC=C(F)C=C6)C=C5]",4,–,59.5,10
"Cn1cc(C(=O)C2CCCCC2)c2cc(C(=O)NS(=O)(=O)c3ccc(CN(CCSc4ccccc4)Cc4ccc5c(c4)OCO5)cc3)ccc21 [SZ31TA40, O=C(NS(C1=CC=C(CN(CCSC2=CC=CC=C2)CC3=CC(OCO4)=C4C=C3)C=C1)(=O)=O)C5=CC=C6C(C(C(C7CCCCC7)=O)=CN6C)=C5]",8,–,-52.4,56
"Cn1cc(C(=O)c2cccs2)c2cc(C(=O)NS(=O)(=O)c3ccc(CN(CCSc4ccccc4)Cc4ccc5c(c4)OCO5)cc3)ccc21 [SZ31TA45, O=C(NS(C1=CC=C(CN(CC2=CC(OCO3)=C3C=C2)CCSC4=CC=CC=C4)C=C1)(=O)=O)C5=CC(C(C(C6=CC=CS6)=O)=CN7C)=C7C=C5]",6,–,40.2,25
"O=C(NS(=O)(=O)c1ccc(-c2ccc(Oc3ccccc3)cc2)cc1)c1cccc2ccccc12 [SZ35TA7, O=C(NS(C1=CC=C(C2=CC=C(OC3=CC=CC=C3)C=C2)C=C1)(=O)=O)C4=CC=CC5=C4C=CC=C5]",4,–,87.8,25
"COc1ccc(Cc2ccc(C(=O)NS(=O)(=O)c3ccc(-c4ccc(Oc5ccccc5)cc4)cc3)cc2)c(OC)c1OC [SZ35TA24, O=C(NS(C1=CC=C(C2=CC=C(OC3=CC=CC=C3)C=C2)C=C1)(=O)=O)C4=CC=C(CC5=CC=C(OC)C(OC)=C5OC)C=C4]",8,–,76.4,9
